This is an account of results in patent US20040023945A1, “CYCLIC AMP-SPECIFIC PHOSPHODIESTERASE INHIBITORS” (ICOS Corporation, priority 1999, published 2004).

The structures appear in SMILES notation. Read-outs that look alike come from different tables or passages of the source.

The test system of data set [1] is serum TNFα levels in LPS-injected mice. As to the kind of experiment: Inhibition of serum TNFα levels in LPS-injected mice (Mouse/TNFα ED50). In kind it is in vivo. As to conditions: Mus musculus. How it is done: In order to assess the ability of a compound to reduce serum TNFα levels in mammals, the following protocol was employed. […] Accordingly, in vivo efficacy of a PDE4 reducing compound was shown by dosing with compound and measuring reduction of serum TNFα levels in LPS-injected mice. Female C3H mice, 20-25 gm body weight, were fasted overnight and dosed intraperitoneally with test compound in appropriate vehicle 60 minutes before LPS injection. Five μg of LPS was then injected intraperitoneally into the mice. Ninety minutes after LPS injection, mice were bled from the heart. Blood was allowed to clot overnight at 4° C. Samples were centrifuged for 10 minutes in a microcentrifuge and the serum removed and stored at −20° C. until analysis. Serum levels of TNFα were subsequently measured using a commercially available ELISA kit (Genzyme) following the protocol enclosed in the kit. The percent of inhibition of serum TNFα levels caused by the compound was determined relative to serum TNFα levels in control mice receiving vehicle alone. […]

The test system of data set [2] is human peripheral blood lymphocytes. Nature of the data set: Lipopolysaccharide-stimulated TNFα release from human peripheral blood lymphocytes. The conditions noted are these: Homo sapiens, Lymphocyte. In kind it is cell-based. How it is done:
The compounds of structural formula (II) also were tested for an ability to reduce TNFα secretion in human peripheral blood lymphocytes. The ability to reduce TNFα secretion is related to the EC50 values (i.e., the effective concentration of the compound capable of inhibiting 50% of the total TNFα).
To assess the ability of a compound to reduce TNFα secretion in human peripheral blood lymphocytes (PBL), the following tests were performed.
Heparinized blood (approximately 30 mL) drawn from human volunteers was mixed 1:1 with Dulbecco's modified phosphate-buffered saline. This mixture was mixed 1:1 with HISTOPAQUE® and centrifuged at 1,500 rpm at room temperature without braking in the swinging bucket of a Beckman model TJ6 centrifuge. Erythrocytes were centrifuged to the bottom of the tubes, and serum remained at the surface of the tubes. A layer containing lymphocytes sedimented between the serum and HISTOPAQUE® layers, and was removed by aspiration to a fresh tube. The cells were quantified and adjusted to 3×10^6 cells/mL and a 100 μL aliquot is placed into the wells of a 96 well plate. Test compounds and RPMI media (Gibco/BRL Life Sciences) are added to each of the wells 15 minutes prior to addition of bacterial LPS ([…]). The mixture was allowed to incubate for 20 hours at 37° C. in a humidified chamber. The cells then were separated by centrifuging at 800 rpm for 5 minutes at room temperature. An aliquot of 180 μL of supernatant was transferred to a new plate for determination of TNFα concentration. TNFα protein in the cell supernatant fluids was measured using a commercially available enzyme-linked immunosorbent assay (ELISA) (CYTOSCREEN® Immunoassay Kit from Biosource International).
The cell-based assay provided the following results for various pyrrolidine compounds of the present invention. The EC50 values (i.e., effective concentration of the compound capable of inhibiting 50% of the total TNFα) illustrate the ability of the present compounds to inhibit LPS-stimulated TNFα release from human PBL.

Data set [3] can be described thus: Mouse locomotor activity assay (decrease in spontaneous mobility). As to conditions: female, Balb/c, in vivo. How it is done:
The purpose of this study was to determine the efficacy of PDE4 inhibitors in vivo in an LPS mouse model together with a determination with respect to central nervous system (CNS) side-effects manifested by a decrease in spontaneous mobility.
The test animals were female Balb/c mice, having an average weight of about 20 g. The PDE4 inhibitors, formulated in 30% Cremophor® EL, were administered via intraperitoneal (i.p.) injections at doses of 0.1, 1.0, 10.0, and 100 mg/kg. Individual dose volumes (about 150 μL) were adjusted based on the body weights measured. One hour later, 5 mg/kg LPS in a final volume of 200 μL was injected via the tail vein to each animal. Ninety minutes following the LPS treatment, the animals were bled and serum samples were collected before being stored at −70° C. until assayed.
Movement of the X-Y plane, or rearing up on the hind legs, was quantified by counting the number of “light-beam” crosses per unit of time. A decrease in the number of activity events is directly proportional to the mobility or immobilization of the animal. The quantitative scoring correlated well with the subjective measurements described above.

A further data set concerns the target T1, human recombinant PDE4B (Homo sapiens, UniProt Q07343).
T1 construct: made in house; host or cells: Saccharomyces cerevisiae strain YI23 harboring HDUN2.32
Nature of the data set: Inhibition of human recombinant PDE4B. In kind it is biochemical. The conditions noted are these: read-out: PDE4B IC50.

For another data set, the system named is recombinant human PDE4. As to conditions: background, prior art; read-out: reported IC50 with respect to recombinant human PDE4; cited from earlier work.
For data set [4] the following is noted: A. Robichaud et al., Neuropharmacology 1999; cited from earlier work.
Where [5] appears, read: read-out: Mouse LPS Challenge ED50.
Setting [6] is: intraperitoneal, read-out: Mouse Inhibition of Spontaneous Mobility ED50.

T1 sequence (Q07343 whole entry): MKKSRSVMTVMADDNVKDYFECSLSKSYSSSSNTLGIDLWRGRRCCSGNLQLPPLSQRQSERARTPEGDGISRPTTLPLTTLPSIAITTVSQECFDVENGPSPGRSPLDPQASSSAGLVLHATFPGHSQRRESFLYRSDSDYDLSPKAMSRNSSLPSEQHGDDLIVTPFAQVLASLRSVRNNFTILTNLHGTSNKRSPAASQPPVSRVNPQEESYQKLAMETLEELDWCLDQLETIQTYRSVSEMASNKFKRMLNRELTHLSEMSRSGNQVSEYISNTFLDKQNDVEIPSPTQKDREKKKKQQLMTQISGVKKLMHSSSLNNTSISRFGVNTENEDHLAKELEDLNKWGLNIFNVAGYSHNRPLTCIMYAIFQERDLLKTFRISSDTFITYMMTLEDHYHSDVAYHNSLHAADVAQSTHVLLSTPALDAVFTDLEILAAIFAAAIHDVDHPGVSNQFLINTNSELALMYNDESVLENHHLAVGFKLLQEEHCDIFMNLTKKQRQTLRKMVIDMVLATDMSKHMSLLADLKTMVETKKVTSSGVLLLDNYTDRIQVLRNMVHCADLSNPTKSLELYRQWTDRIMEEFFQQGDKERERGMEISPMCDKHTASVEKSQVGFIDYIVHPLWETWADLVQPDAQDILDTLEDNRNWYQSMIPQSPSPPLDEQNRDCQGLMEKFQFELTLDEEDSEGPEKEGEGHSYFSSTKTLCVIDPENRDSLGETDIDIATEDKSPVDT

For orientation: IC50 means the concentration needed to halve the response being measured. For the compound `CCCC(O)C(=O)N1C[C@@H](c2ccc(OC)c(OCC3CC3)c2)[C@](C)([C@@H](C)O)C1` (stereo partly drawn) [Example 101, 1-{(3S,4S)-3-((1R)-1-Hydroxyethyl)-4-[3-(cyclopropylmethoxy)-4-methoxyphenyl]-3-methylpyrrolidinyl)-2-hydroxypentan-1-one], the ED50 stood at 3 mg/kg in data set [1] (setting [5]) and 100 mg/kg in data set [3] (setting [6]). In data set [2] (read-out: Cell based EC50), the EC50 came to 30 nM. Besides, at human recombinant PDE4B, the 50% inhibitory concentration (IC50) worked out at 11 nM.
Regarding `COc1ccc(C2CNC(=O)C2)cc1OC1CCCC1` (stereo not drawn) [Rolipram, rolipram], in the data set with recombinant human PDE4, the IC50 was approximately 200 nM.
Take `COc1ccc([C@@H]2CNC(=O)C2)cc1OC1CCCC1` [R-rolipram]: the “emetic potency relative to the (+)-enantiomer (S-rolipram)” value in data set [4] is “about ten-fold”.
Take `COc1ccc([C@@H]2CN(c3ccccn3)C[C@@]2(C)[C@@H](C)O)cc1OC1Cc2ccccc2C1` [Example 31, (1R)-1-[(3S,4S)-4-(3-Indan-2-yloxy-4-methoxyphenyl)-3-methyl-1-(2-pyridyl)pyrrolidin-3-yl]ethan-1-ol]: the ED50 in data set [1] (mouse, i.p., LPS challenge, read-out: Mouse/TNFα ED50) was found to be 3 mg/kg; in data set [3] (ip, read-out: ED50, effective dose that decreases spontaneous mobility 50% of control), 83 mg/kg. Also, the EC50 in data set [2] (LPS-stimulated TNFα release from human PBL, read-out: PBL/TNFα EC50) stood at 35 nM.
As to `COc1ccc([C@@H]2CN(C(=O)[C@@H](O)Cc3ccccc3)C[C@@]2(C)[C@@H](C)O)cc1OCC#Cc1ccccc1` [Example 268, (S)-2-Hydroxy-1-{(3S,4S)-3-((R)-1-hydroxyethyl)-4-[4-methoxy-3-(3-phenylprop-2-ynyloxy)phenyl]-3-methylpyrrolidin-1-yl}-3-phenylpropan-1-one], the figures for the ED50 in data set [1] (setting [5]) and in data set [3] (setting [6]) were 5 mg/kg and 100 mg/kg, respectively. Also, the EC50 in data set [2] (read-out: Cell based EC50) turned out to be 6 nM. Moreover, the concentration for half-maximal inhibition (IC50) at human recombinant PDE4B came out at 15 nM.
As to `COc1ccc([C@@H]2CN(C(=O)C(O)c3ccccc3)C[C@@]2(C)[C@@H](C)O)cc1OCC1CC1` (stereo partly drawn) [Example 195, 1-{3-((1R)-1-Hydroxyethyl)(3S,4S)-4-[3-(cyclopropyl-methoxy)-4-methoxyphenyl]-3-methylpyrrolidinyl}-2-hydroxy-2-phenylethan-1-one], the results for the ED50 in data set [1] (setting [5]) and in data set [3] (setting [6]) were 9 mg/kg and 100 mg/kg, respectively. The EC50 in data set [2] (read-out: Cell based EC50) was found to be 30 nM. Further, the IC50 at human recombinant PDE4B was determined as 7 nM.
Take `COc1ccc([C@@H]2CN(C(=O)[C@H](N)CO)C[C@@]2(C)[C@@H](C)O)cc1OCC1CC1.Cl` [Example 109, hydrochloride]: the EC50 in data set [2] (read-out: Cell based EC50) is 30 nM. Further, the IC50 on human recombinant PDE4B worked out at 20 nM.
As for `COC(=O)N1CC(c2ccc(OC)c(OC3CCCC3)c2)C(C)(C(C)=O)C1` (stereo not drawn) [formula (I)], the half-inhibitory concentration (IC50) in the data set with recombinant human PDE4 was approximately 2 nM.
`COc1ccc([C@@H]2CN(C(=O)[C@@H](O)CO)C[C@@]2(C)[C@@H](C)O)cc1OCC#Cc1ccccc1` [Example 264, (S)-2,3-Dihydroxy-1-{(3S,4S)-3-((R)-1-hydroxyethyl)-4-[4-methoxy-3-(3-phenylprop-2-ynyloxy)phenyl]-3-methylpyrrolidin-1-yl}propan-1-one]: the ED50 in data set [1] (setting [5]) is 1 mg/kg; in data set [3] (setting [6]) it was less than 100 mg/kg. Also, the EC50 in data set [2] (read-out: Cell based EC50) worked out at 10 nM. In addition, at human recombinant PDE4B, the concentration for half-maximal inhibition (IC50) stood at 3 nM.
